{"source": "paper PMC5540273", "about": "“Progress towards a public chemogenomic set for protein kinases and a call for contributions” (PLoS ONE, 2017)", "assay_in_all_cases": "KINOMEscan competition binding", "key": {"[1]": {"molecular_target": "ERK4 (Homo sapiens, UniProt P31152)", "sequence (P31152 whole entry)": "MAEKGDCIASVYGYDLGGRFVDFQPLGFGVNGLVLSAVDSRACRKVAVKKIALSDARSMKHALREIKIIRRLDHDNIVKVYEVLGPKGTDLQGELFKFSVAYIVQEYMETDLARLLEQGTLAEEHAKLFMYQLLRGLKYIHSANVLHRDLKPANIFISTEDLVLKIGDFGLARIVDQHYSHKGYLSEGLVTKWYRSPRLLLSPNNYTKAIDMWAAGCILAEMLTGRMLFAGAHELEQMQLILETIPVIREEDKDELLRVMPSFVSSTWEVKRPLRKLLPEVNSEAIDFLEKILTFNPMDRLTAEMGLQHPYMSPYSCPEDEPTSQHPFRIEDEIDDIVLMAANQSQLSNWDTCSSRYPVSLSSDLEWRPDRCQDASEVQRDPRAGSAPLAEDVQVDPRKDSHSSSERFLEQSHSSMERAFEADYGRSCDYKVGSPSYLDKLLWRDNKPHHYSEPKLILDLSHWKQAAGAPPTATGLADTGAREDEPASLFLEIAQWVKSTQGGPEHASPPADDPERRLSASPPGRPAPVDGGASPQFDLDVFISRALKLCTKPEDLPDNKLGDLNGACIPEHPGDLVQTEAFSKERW", "settings": "read-out: %Inh ERK4"}, "[2]": {"molecular_target": "T1, MAP3K2 (Homo sapiens, UniProt Q9Y2U5)", "T1 sequence (Q9Y2U5 1-619)": "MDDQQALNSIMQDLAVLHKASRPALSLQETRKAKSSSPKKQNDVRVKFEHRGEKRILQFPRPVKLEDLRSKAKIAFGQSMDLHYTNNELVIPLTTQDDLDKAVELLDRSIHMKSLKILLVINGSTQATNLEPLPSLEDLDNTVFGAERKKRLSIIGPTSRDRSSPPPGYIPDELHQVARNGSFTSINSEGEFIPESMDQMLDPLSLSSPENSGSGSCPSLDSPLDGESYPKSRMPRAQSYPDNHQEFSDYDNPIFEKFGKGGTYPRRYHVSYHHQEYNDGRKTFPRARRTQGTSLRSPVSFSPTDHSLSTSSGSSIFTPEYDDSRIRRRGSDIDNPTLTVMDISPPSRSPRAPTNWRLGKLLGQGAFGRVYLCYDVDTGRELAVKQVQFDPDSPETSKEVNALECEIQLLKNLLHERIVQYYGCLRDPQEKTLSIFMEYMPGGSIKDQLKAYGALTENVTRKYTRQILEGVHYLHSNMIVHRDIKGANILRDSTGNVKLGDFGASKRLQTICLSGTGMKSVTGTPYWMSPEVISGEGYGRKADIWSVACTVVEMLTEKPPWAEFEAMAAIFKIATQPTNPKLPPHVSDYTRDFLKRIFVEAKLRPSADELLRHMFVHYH", "settings": "read-out: %Inh MAP3K2"}, "[3]": {"molecular_target": "T2, IKK-alpha (Homo sapiens, UniProt O15111)", "T2 sequence (O15111 1-745)": "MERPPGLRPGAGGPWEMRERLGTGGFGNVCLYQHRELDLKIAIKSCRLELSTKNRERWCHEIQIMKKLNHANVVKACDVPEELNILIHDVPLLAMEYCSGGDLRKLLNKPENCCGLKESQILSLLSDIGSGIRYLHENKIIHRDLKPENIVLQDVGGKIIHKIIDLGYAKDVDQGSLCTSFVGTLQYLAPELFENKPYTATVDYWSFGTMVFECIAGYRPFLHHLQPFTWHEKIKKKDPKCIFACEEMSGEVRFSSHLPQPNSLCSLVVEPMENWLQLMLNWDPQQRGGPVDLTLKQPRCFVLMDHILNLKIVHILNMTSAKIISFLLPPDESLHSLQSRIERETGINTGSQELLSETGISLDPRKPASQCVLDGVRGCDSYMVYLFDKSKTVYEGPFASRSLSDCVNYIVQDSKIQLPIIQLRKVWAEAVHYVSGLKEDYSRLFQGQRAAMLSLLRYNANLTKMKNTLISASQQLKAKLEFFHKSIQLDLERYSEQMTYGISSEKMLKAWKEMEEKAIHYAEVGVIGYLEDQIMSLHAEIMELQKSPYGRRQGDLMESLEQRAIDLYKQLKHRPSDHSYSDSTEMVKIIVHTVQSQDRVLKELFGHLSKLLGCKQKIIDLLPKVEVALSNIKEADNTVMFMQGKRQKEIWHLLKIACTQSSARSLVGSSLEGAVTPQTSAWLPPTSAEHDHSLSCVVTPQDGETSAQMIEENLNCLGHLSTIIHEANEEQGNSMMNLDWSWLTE", "settings": "read-out: %Inh IKK-alpha"}, "[4]": {"molecular_target": "T3, CSF1R-autoinhibited (Homo sapiens, UniProt P07333)", "T3 sequence (P07333 539-972 limits assumed)": "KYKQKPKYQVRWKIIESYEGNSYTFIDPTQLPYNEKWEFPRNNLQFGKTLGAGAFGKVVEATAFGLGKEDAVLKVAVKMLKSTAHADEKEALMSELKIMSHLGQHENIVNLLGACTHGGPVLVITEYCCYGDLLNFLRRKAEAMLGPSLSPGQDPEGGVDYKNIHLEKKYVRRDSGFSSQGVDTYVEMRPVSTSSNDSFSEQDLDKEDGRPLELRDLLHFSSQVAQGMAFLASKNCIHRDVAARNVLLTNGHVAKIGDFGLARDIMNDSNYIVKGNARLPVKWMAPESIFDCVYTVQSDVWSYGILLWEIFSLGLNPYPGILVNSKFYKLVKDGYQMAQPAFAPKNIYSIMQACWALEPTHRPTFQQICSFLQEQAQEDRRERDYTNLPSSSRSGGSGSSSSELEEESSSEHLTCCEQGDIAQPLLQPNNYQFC", "settings": "read-out: %Inh CSF1R-autoinhibited"}, "[5]": {"molecular_target": "AKT3 (Homo sapiens, UniProt Q9Y243)", "sequence (Q9Y243 whole entry)": "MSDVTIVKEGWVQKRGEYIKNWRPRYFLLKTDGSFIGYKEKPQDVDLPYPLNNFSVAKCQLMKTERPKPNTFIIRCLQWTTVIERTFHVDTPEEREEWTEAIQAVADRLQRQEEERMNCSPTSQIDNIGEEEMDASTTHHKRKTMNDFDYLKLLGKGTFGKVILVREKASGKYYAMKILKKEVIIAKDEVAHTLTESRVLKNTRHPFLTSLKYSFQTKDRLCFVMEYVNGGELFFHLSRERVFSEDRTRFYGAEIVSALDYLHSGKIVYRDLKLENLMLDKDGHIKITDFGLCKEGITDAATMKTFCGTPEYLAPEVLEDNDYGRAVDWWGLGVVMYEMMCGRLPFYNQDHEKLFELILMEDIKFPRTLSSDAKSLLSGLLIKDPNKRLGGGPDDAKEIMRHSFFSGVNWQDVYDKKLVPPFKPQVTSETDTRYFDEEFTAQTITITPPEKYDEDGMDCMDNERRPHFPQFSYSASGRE", "settings": "read-out: %Inh AKT3"}, "[6]": {"molecular_target": "GSK3A (Homo sapiens, UniProt P49840)", "sequence (P49840 whole entry)": "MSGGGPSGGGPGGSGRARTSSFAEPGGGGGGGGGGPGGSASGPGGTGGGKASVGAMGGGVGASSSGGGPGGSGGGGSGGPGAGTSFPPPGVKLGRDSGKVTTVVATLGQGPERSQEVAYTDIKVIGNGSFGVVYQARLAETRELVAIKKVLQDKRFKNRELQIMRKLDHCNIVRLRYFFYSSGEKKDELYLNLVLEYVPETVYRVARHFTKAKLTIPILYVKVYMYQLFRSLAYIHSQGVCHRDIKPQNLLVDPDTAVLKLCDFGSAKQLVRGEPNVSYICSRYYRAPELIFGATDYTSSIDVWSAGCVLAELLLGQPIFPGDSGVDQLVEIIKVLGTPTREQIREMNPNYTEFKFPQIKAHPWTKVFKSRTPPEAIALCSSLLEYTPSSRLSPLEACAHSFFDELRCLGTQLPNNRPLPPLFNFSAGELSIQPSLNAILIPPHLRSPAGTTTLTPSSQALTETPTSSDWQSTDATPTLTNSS", "settings": "read-out: %Inh GSK3A"}, "[7]": {"molecular_target": "ACVR2A (Homo sapiens, UniProt P27037)", "sequence (P27037 20-513)": "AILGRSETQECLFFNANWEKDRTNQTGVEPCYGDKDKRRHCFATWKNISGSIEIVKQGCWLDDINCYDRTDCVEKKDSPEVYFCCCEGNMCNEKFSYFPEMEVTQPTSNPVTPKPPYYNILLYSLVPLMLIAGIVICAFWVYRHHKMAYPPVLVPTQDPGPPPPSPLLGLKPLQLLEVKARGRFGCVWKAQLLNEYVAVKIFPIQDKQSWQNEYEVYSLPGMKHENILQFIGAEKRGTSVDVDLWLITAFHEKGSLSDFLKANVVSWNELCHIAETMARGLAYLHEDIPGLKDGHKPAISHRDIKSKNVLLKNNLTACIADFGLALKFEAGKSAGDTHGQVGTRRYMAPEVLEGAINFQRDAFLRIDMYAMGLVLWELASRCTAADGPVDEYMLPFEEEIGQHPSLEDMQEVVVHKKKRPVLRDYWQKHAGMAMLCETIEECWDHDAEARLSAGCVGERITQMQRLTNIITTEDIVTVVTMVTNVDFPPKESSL", "settings": "read-out: %Inh ACVR2A"}}, "data": [{"smiles": "CS(=O)(=O)Cc1ccc(Nc2nccc(-c3c(-c4cccc(NC(=O)C5CCCCC5)c4)nn4ncccc34)n2)cc1", "note": "[UNC10225159A]", "values": [{"measurement": "inhibition at 1 µM", "setting": "[1]", "value": 3, "unit": "%"}, {"measurement": "inhibition at 1 µM", "setting": "[2]", "value": 15, "unit": "%"}, {"measurement": "inhibition at 1 µM", "setting": "[3]", "value": 0, "unit": "%"}, {"measurement": "inhibition at 1 µM", "setting": "[4]", "value": 35, "unit": "%"}, {"measurement": "inhibition at 1 µM", "setting": "[5]", "value": 0, "unit": "%"}, {"measurement": "inhibition at 1 µM", "setting": "[6]", "value": 0, "unit": "%"}, {"measurement": "inhibition at 1 µM", "setting": "[7]", "value": 0, "unit": "%"}]}, {"smiles": "Cn1cc(-c2cnc(N)c3c(-c4ccc5c(c4)CCN5C(=O)Cc4ccccc4)csc23)cn1", "note": "[UNC10225012A]", "values": [{"measurement": "inhibition at 1 µM", "setting": "[1]", "value": 0, "unit": "%"}, {"measurement": "inhibition at 1 µM", "setting": "[2]", "value": 75, "unit": "%"}, {"measurement": "inhibition at 1 µM", "setting": "[3]", "value": 0, "unit": "%"}, {"measurement": "inhibition at 1 µM", "setting": "[4]", "value": 39, "unit": "%"}, {"measurement": "inhibition at 1 µM", "setting": "[5]", "value": 8, "unit": "%"}, {"measurement": "inhibition at 1 µM", "setting": "[6]", "value": 5, "unit": "%"}, {"measurement": "inhibition at 1 µM", "setting": "[7]", "value": 0, "unit": "%"}]}, {"smiles": "O=c1cc(N2CCOCC2)nc2n(Cc3cccc(Cl)c3Cl)c(C3CC3)nn12", "note": "[UNC10225469A]", "values": [{"measurement": "inhibition at 1 µM", "setting": "[1]", "value": 0, "unit": "%"}, {"measurement": "inhibition at 1 µM", "setting": "[2]", "value": 0, "unit": "%"}, {"measurement": "inhibition at 1 µM", "setting": "[3]", "value": 0, "unit": "%"}, {"measurement": "inhibition at 1 µM", "setting": "[4]", "value": 0, "unit": "%"}, {"measurement": "inhibition at 1 µM", "setting": "[5]", "value": 0, "unit": "%"}, {"measurement": "inhibition at 1 µM", "setting": "[6]", "value": 4, "unit": "%"}, {"measurement": "inhibition at 1 µM", "setting": "[7]", "value": 0, "unit": "%"}]}, {"smiles": "COc1cccc(OC)c1C(=O)Nc1cccc(-c2nn3ccccc3c2-c2ccnc(Nc3cccc(F)c3)n2)c1", "note": "[UNC10225310A]", "values": [{"measurement": "inhibition at 1 µM", "setting": "[1]", "value": 9, "unit": "%"}, {"measurement": "inhibition at 1 µM", "setting": "[2]", "value": 7, "unit": "%"}, {"measurement": "inhibition at 1 µM", "setting": "[3]", "value": 0, "unit": "%"}, {"measurement": "inhibition at 1 µM", "setting": "[4]", "value": 4, "unit": "%"}, {"measurement": "inhibition at 1 µM", "setting": "[5]", "value": 0, "unit": "%"}, {"measurement": "inhibition at 1 µM", "setting": "[6]", "value": 24, "unit": "%"}, {"measurement": "inhibition at 1 µM", "setting": "[7]", "value": 7, "unit": "%"}]}, {"smiles": "Cc1ccc(NC(=O)Nc2cccc(C(F)(F)F)c2)cc1", "note": "[UNC10225187A]", "values": [{"measurement": "inhibition at 1 µM", "setting": "[1]", "value": 0, "unit": "%"}, {"measurement": "inhibition at 1 µM", "setting": "[2]", "value": 0, "unit": "%"}, {"measurement": "inhibition at 1 µM", "setting": "[3]", "value": 0, "unit": "%"}, {"measurement": "inhibition at 1 µM", "setting": "[4]", "value": 0, "unit": "%"}, {"measurement": "inhibition at 1 µM", "setting": "[5]", "value": 0, "unit": "%"}, {"measurement": "inhibition at 1 µM", "setting": "[6]", "value": 0, "unit": "%"}, {"measurement": "inhibition at 1 µM", "setting": "[7]", "value": 2, "unit": "%"}]}]}
